Drawing on ChEMBL document CHEMBL1149870, “Synthesis and antibacterial activity of egonol derivatives” (2008), this text covers MIC and Activity for eleven compounds.

As a reminder, the MIC is the lowest concentration that inhibits growth of the organism. Read a low MIC as a more susceptible organism.

Common to all, as to assay type: functional
One assay deals with Candida albicans. Briefly: Antifungal activity against Candida albicans by Muller Hilton broth method.
For a further assay, the system named is Staphylococcus aureus. Briefly: Antibacterial activity against Staphylococcus aureus by Muller Hilton broth method.
The subject of the next assay is Bacillus subtilis. As to the kind of experiment: Antibacterial activity against Bacillus subtilis by Muller Hilton broth method.
A further assay concerns Escherichia coli. As to the kind of experiment: Antibacterial activity against Escherichia coli by Muller Hilton broth method.

In brackets after ≈: the same amount, converted by molar mass. Activity calls are given as the source filed them. The rule behind the calls is not given here.

For `COc1cc(CCCCl)cc2cc(-c3ccc4c(c3)OCO4)oc12`, the minimum inhibitory concentration (MIC) in the assay on Candida albicans is 64 µg/mL (≈ 186 µM); against Staphylococcus aureus it was 256 µg/mL (≈ 742 µM); against Bacillus subtilis it was 128 µg/mL (≈ 371 µM); against Escherichia coli it was 256 µg/mL (≈ 742 µM).

Consider `COc1cc(CCCO)cc2cc(-c3ccc4c(c3)OCO4)oc12` [EGONOL], for which the MIC against Candida albicans, with Staphylococcus aureus, with Bacillus subtilis and in the assay on Escherichia coli was 800 µg/mL (≈ 2450 µM) throughout.

Take `COc1c(Br)c(CCCO)cc2cc(-c3ccc4c(c3)OCO4)oc12`: the minimal inhibitory concentration (MIC) with Candida albicans, with Staphylococcus aureus, with Bacillus subtilis and with Escherichia coli was 800 µg/mL (≈ 1970 µM) each time.

In the case of `COc1cc(CCCBr)cc2cc(-c3ccc4c(c3)OCO4)oc12`, the minimal inhibitory concentration (MIC) worked out at 400 µg/mL (≈ 1030 µM) against Candida albicans, 800 µg/mL (≈ 2060 µM) in the assay on Staphylococcus aureus, 400 µg/mL (≈ 1030 µM) in the assay on Bacillus subtilis and 800 µg/mL (≈ 2060 µM) in the assay with Escherichia coli.

Turning to `COc1cc(CCCI)cc2cc(-c3ccc4c(c3)OCO4)oc12`, the minimal inhibitory concentration (MIC) with Candida albicans, with Staphylococcus aureus, in the assay on Bacillus subtilis and with Escherichia coli was 800 µg/mL (≈ 1830 µM) throughout.

As to `COc1cc(CCC=O)cc2cc(-c3ccc4c(c3)OCO4)oc12`, the minimum inhibitory concentration (MIC) was found to be 128 µg/mL (≈ 395 µM) in the assay on Candida albicans, 64 µg/mL (≈ 197 µM) against Staphylococcus aureus, 256 µg/mL (≈ 789 µM) against Bacillus subtilis and 800 µg/mL (≈ 2470 µM) against Escherichia coli.

As to `COc1cc(CCCO)cc2c([N+](=O)[O-])c(-c3ccc4c(c3)OCO4)oc12`, the minimum inhibitory concentration (MIC) in the assay on Candida albicans and against Bacillus subtilis was 800 µg/mL (≈ 2150 µM) each time. Moreover, the result with Staphylococcus aureus and in the assay with Escherichia coli was inactive.

Take `COc1cc(CCCOC=O)cc2cc(-c3ccc4c(c3)OCO4)oc12`: the minimum inhibitory concentration (MIC) in the assay with Candida albicans, against Staphylococcus aureus, with Bacillus subtilis and with Escherichia coli was 400 µg/mL (≈ 1130 µM) in each case.

Regarding `COc1cc(CCCOC(=O)c2ccccc2)cc2cc(-c3ccc4c(c3)OCO4)oc12`, the MIC against Candida albicans, with Staphylococcus aureus, against Bacillus subtilis and with Escherichia coli was 800 µg/mL (≈ 1860 µM) throughout.

`COc1cc(CCCOCCCBr)cc2cc(-c3ccc4c(c3)OCO4)oc12`: the MIC in the assay with Candida albicans is 800 µg/mL (≈ 1790 µM); against Staphylococcus aureus it was 256 µg/mL (≈ 572 µM); against Bacillus subtilis, 256 µg/mL (≈ 572 µM); against Escherichia coli, 800 µg/mL (≈ 1790 µM).

On to `COc1cc(CCCC#N)cc2cc(-c3ccc4c(c3)OCO4)oc12`, for which, in the assay with Candida albicans, the outcome was inactive. Also, the MIC against Staphylococcus aureus, against Bacillus subtilis and against Escherichia coli was 800 µg/mL (≈ 2390 µM) in each case.
